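A five-concentration, 48-hour dose response in 96-well plates underlies each endpoint, interpolated linearly between surrounding concentrations. At the GI50, growth is halved.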 Active and inactive are the calls of the source. No stated cut-off is given here; in the data, active = GI50 up to about 1.1 µM and inactive = higher.
Key:
Assay in all cases: growth of human tumour cells (NCI), 48 h
IGROV-1 = system: IGROV-1
M14 = system: M14
OVCAR-5 = system: OVCAR-5
EKVX = system: EKVX
A498 = system: A498
CAKI-1 = system: CAKI-1
SF-268 = system: SF-268
RXF 393 = system: RXF 393
MDA-MB-435 = system: MDA-MB-435
SNB-19 = system: SNB-19
Hs-578T = system: Hs-578T
SR = system: SR
SK-OV-3 = system: SK-OV-3
SK-MEL-2 = system: SK-MEL-2
HL-60 = system: HL-60
SK-MEL-28 = system: SK-MEL-28
HCT-116 = system: HCT-116
ACHN = system: ACHN
MDA-N = system: MDA-N
HOP-92 = system: HOP-92
RPMI-8226 = system: RPMI-8226
SNB-75 = system: SNB-75
HOP-62 = system: HOP-62
HCT-15 = system: HCT-15
K562 = system: K562
786-0 = system: 786-0
TK-10 = system: TK-10
U-251 = system: U-251
HT-29 = system: HT-29
LOX IMVI = system: LOX IMVI
OVCAR-4 = system: OVCAR-4
UACC-257 = system: UACC-257
PC-3 = system: PC-3
UACC-62 = system: UACC-62
OVCAR-8 = system: OVCAR-8
DU-145 = system: DU-145
SF-295 = system: SF-295
T47D = system: T47D
MCF7 = system: MCF7
MOLT-4 = system: MOLT-4
Malme-3M = system: Malme-3M
A549 = system: A549
OVCAR-3 = system: OVCAR-3
KM12 = system: KM12
NCI-H23 = system: NCI-H23
MDA-MB-231 = system: MDA-MB-231
SF-539 = system: SF-539
SN12C = system: SN12C
NCI-H460 = system: NCI-H460
NCI-H226 = system: NCI-H226
CCRF-CEM = system: CCRF-CEM
NCI-H522 = system: NCI-H522
NCI/ADR-RES = system: NCI/ADR-RES
COLO 205 = system: COLO 205
BT-549 = system: BT-549
SK-MEL-5 = system: SK-MEL-5
SW-620 = system: SW-620
UO-31 = system: UO-31

CC(=O)CC(=O)Nc1ccc2ccccc2c1
GI50 (IGROV-1): > 100 µM (inactive)
GI50 (M14): > 100 µM (inactive)
GI50 (OVCAR-5): > 100 µM (inactive)
GI50 (EKVX): > 100 µM (inactive)
GI50 (A498): > 100 µM (inactive)
GI50 (CAKI-1): 84.3 µM (inactive)
GI50 (SF-268): > 100 µM (inactive)
GI50 (RXF 393): > 100 µM (inactive)
GI50 (MDA-MB-435): 67.9 µM (inactive)
GI50 (SNB-19): > 100 µM (inactive)
GI50 (Hs-578T): > 100 µM (inactive)
GI50 (SR): 51.5 µM (inactive)
GI50 (SK-OV-3): > 100 µM (inactive)
GI50 (SK-MEL-2): > 100 µM (inactive)
GI50 (HL-60): > 100 µM (inactive)
GI50 (SK-MEL-28): > 100 µM (inactive)
GI50 (HCT-116): > 100 µM (inactive)
GI50 (ACHN): > 100 µM (inactive)
GI50 (MDA-N): > 100 µM (inactive)
GI50 (HOP-92): > 100 µM (inactive)
GI50 (RPMI-8226): 45.6 µM (inactive)
GI50 (SNB-75): > 100 µM (inactive)
GI50 (HOP-62): > 100 µM (inactive)
GI50 (HCT-15): 95.3 µM
GI50 (K562): 46.9 µM (inactive)
GI50 (786-0): > 100 µM (inactive)
GI50 (TK-10): 65.8 µM (inactive)
GI50 (U-251): > 100 µM (inactive)
GI50 (HT-29): > 100 µM (inactive)
GI50 (LOX IMVI): > 100 µM (inactive)
GI50 (OVCAR-4): 29.4 µM (inactive)
GI50 (UACC-257): 51.9 µM (inactive)
GI50 (PC-3): > 100 µM (inactive)
GI50 (UACC-62): > 100 µM (inactive)
GI50 (OVCAR-8): > 100 µM (inactive)
GI50 (DU-145): > 100 µM (inactive)
GI50 (SF-295): 69.7 µM (inactive)
GI50 (T47D): 40.2 µM (inactive)
GI50 (MCF7): 74.3 µM (inactive)
GI50 (MOLT-4): 36.7 µM (inactive)
GI50 (Malme-3M): > 100 µM (inactive)
GI50 (A549): > 100 µM (inactive)
GI50 (OVCAR-3): 34.6 µM (inactive)
GI50 (KM12): > 100 µM (inactive)
GI50 (NCI-H23): 86.9 µM (inactive)
GI50 (MDA-MB-231): > 100 µM (inactive)
GI50 (SF-539): 53.6 µM (inactive)
GI50 (SN12C): > 100 µM (inactive)
GI50 (NCI-H460): > 100 µM (inactive)
GI50 (NCI-H226): > 100 µM (inactive)
GI50 (CCRF-CEM): 36.8 µM (inactive)
GI50 (NCI-H522): 47.2 µM (inactive)
GI50 (NCI/ADR-RES): 67.3 µM (inactive)
GI50 (COLO 205): 35.5 µM (inactive)
GI50 (BT-549): > 100 µM (inactive)
GI50 (SK-MEL-5): 72.4 µM (inactive)
GI50 (SW-620): > 100 µM (inactive)

O=S(=O)(O)C(c1ccccc1)C(O)c1ccccc1 (stereo not drawn)
GI50 (IGROV-1): > 100 µM (inactive)
GI50 (UO-31): > 100 µM (inactive)
GI50 (M14): > 100 µM (inactive)
GI50 (OVCAR-5): > 100 µM (inactive)
GI50 (EKVX): > 100 µM (inactive)
GI50 (A498): > 100 µM (inactive)
GI50 (CAKI-1): > 100 µM (inactive)
GI50 (SF-268): > 100 µM (inactive)
GI50 (RXF 393): > 100 µM (inactive)
GI50 (MDA-MB-435): > 100 µM (inactive)
GI50 (SNB-19): > 100 µM (inactive)
GI50 (Hs-578T): > 100 µM (inactive)
GI50 (SR): > 100 µM (inactive)
GI50 (SK-OV-3): > 100 µM (inactive)
GI50 (SK-MEL-2): > 100 µM (inactive)
GI50 (HL-60): > 100 µM (inactive)
GI50 (SK-MEL-28): > 100 µM (inactive)
GI50 (HCT-116): > 100 µM (inactive)
GI50 (ACHN): > 100 µM (inactive)
GI50 (MDA-N): > 100 µM (inactive)
GI50 (HOP-92): > 100 µM (inactive)
GI50 (RPMI-8226): > 100 µM (inactive)
GI50 (SNB-75): > 100 µM (inactive)
GI50 (HOP-62): > 100 µM (inactive)
GI50 (HCT-15): > 100 µM
GI50 (K562): > 100 µM (inactive)
GI50 (786-0): > 100 µM (inactive)
GI50 (TK-10): > 100 µM (inactive)
GI50 (U-251): > 100 µM (inactive)
GI50 (HT-29): > 100 µM (inactive)
GI50 (LOX IMVI): > 100 µM (inactive)
GI50 (OVCAR-4): > 100 µM (inactive)
GI50 (UACC-257): 46.5 µM (inactive)
GI50 (PC-3): > 100 µM (inactive)
GI50 (UACC-62): > 100 µM (inactive)
GI50 (OVCAR-8): > 100 µM (inactive)
GI50 (DU-145): > 100 µM (inactive)
GI50 (SF-295): > 100 µM (inactive)
GI50 (T47D): > 100 µM (inactive)
GI50 (MCF7): > 100 µM (inactive)
GI50 (Malme-3M): > 100 µM (inactive)
GI50 (A549): > 100 µM (inactive)
GI50 (OVCAR-3): > 100 µM (inactive)
GI50 (KM12): > 100 µM (inactive)
GI50 (NCI-H23): > 100 µM (inactive)
GI50 (MDA-MB-231): > 100 µM (inactive)
GI50 (SN12C): > 100 µM (inactive)
GI50 (NCI-H460): > 100 µM (inactive)
GI50 (NCI-H226): > 100 µM (inactive)
GI50 (CCRF-CEM): > 100 µM (inactive)
GI50 (NCI-H522): > 100 µM (inactive)
GI50 (NCI/ADR-RES): > 100 µM (inactive)
GI50 (COLO 205): > 100 µM (inactive)
GI50 (BT-549): > 100 µM (inactive)
GI50 (SK-MEL-5): > 100 µM (inactive)
GI50 (SW-620): > 100 µM (inactive)
